Results: patent US6770638B2, “Tetrahydroindolone and purine derivatives linked to arylpiperazines” (Spectrum Pharmaceuticals, Inc., priority 2001, dated 2004)

Columns and labels:
Caco-2 cells = test: Membrane permeability (Papp) across Caco-2 cell monolayers; assay type: in vitro ADME; conditions: Caco-2; for EFFLUX LIMITED: Yes/No; for PERMEABILITY: class in words (High/Low)
[1] = as above; assay type: in vitro ADME; conditions: human, Caco-2 monolayer; for Papp A→B: apical to basolateral, read-out: Papp (cm/s × 10^6) AP-to-BL; for Papp B→A: basolateral to apical, read-out: Papp (cm/s × 10^6) BL-to-AP; for efflux ratio: read-out: RATIO Papp^B-A/Papp^A-B
mice = test: Conditioned avoidance responding (CAR, active avoidance); assay type: in vivo; conditions: SC to mice, 20 minutes before test session
Protocol: Training: Consists of 20 trials with variable inter-trial intervals (Trained to 80% Avoidance Criteria). After a one-minute acclimation period, the house light and an acoustic 90 dB tone (conditioned stimuli) are presented. A response (crossing to dark compartment) within 5 seconds ends the trial and trial is recorded as avoidance response (CAR). […] To avoid shock, animals learn to move from the lighted side of the -chamber to the dark side when the cue is presented (avoidance) or moved when the shock is administered (escape). Testing: Vehicle or test compounds are administered S.C. 20 minutes before the test session. (Checking for disruption of cognition and attention)

male C-57 mice = test: PCP disruption of pre-pulse inhibition of the acoustic startle response; assay type: in vivo; conditions: route not given (method: PO or SC); PCP 5 mg/kg IP
Protocol: The non-competitive NMDA receptor antagonist phencyclidine (PCP) reduces pre-pulse inhibition (PPI) of the acoustic startle response in rodents. Identifying compounds that improve the PCP-induced deficits in pre-pulse inhibition may provide insight into therapeutic strategies for treating schizophrenia. For testing of PPI, male C-57 mice were assigned to five dose groups of eight animals per group, and vehicle or test compound were administered orally (PO) or subcutaneously (SC) 20 minutes prior to intraperitoneal (IP) administration of vehicle or PCP (5 mg/kg). Ten minutes following PCP administration, the mice were placed into Hamilton-Kinder startle chambers and evaluation of pre-pulse inhibition procedure was performed. Following a five-minute acclimatization period with background white noise (65 db), mice were exposed to five different trial types. Trials were presented […] in a quasi-random order, with randomized 5 to 25 second inter-trial intervals. Trials were: stimulus only trial (120 db white noise, 50 ms stimulus); two different prepulse+pulse trials in which a 20 ms 5 db, or 10 db stimuli above a 65 db background preceded the 120 db pulse by 120 ms; a 10 db prepulse without a 120 db pulse; and a no stimulus trial, in which only the background noise was presented.

SMILES | EFFLUX LIMITED (Caco-2 cells) | PERMEABILITY (Caco-2 cells) | Papp A→B [1] | efflux ratio [1] | Papp B→A [1] | Conditioned Avoidance Responding, effect on avoidance (mice) | Conditioned Avoidance Responding, effect on latency (mice) | PCP Disruption of Pre-pulse Inhibition, result in words (male C-57 mice) | Conditioned Avoidance Responding, overall effect / effect on escape or avoidance (mice)
CN1CCN(C2=Nc3cc(Cl)ccc3Nc3ccccc32)CC1 [Clozapine, clozapine, reference compound] | No | High | 15.3 ± 0.7 ×10⁻⁶ cm/s | 0.65 | 7.4 ± 1.1 ×10⁻⁶ cm/s |  |  |  | 
O=C1CCCc2c1ccn2CCCN1CCN(c2cccc(C(F)(F)F)c2)CC1 [NEO-356, 1-{3-[4-(3-Trifluoromethylphenyl)piperazin-1-yl]propyl}-1,5,6,7-tetrahydroindol-4-one] | No | High | 21.5 ± 2.9 ×10⁻⁶ cm/s | 0.41 | 8.8 ± 0.3 ×10⁻⁶ cm/s |  |  | No reversal | No effect
Cc1nc2n(c(=O)c1CCN1CCC(c3noc4cc(F)ccc34)CC1)CCCC2 [Risperidone, risperidone, reference compound] | No | High | 21.5 ± 0.2 ×10⁻⁶ cm/s |  | 14 ± 3.1 ×10⁻⁶ cm/s | Significant reduction in avoidance | Significant increase in latency |  | 
O=C1CCCc2c1ccn2CCN1CCN(c2cccc(C(F)(F)F)c2)CC1 [NEO-359, 1-{2-[4-(3-Trifluoromethylphenyl)piperazine-1-yl]ethyl}-1,5,6,7-tetrahydroindol-4-one] | No | High | 24 ± 3.9 ×10⁻⁶ cm/s | 0.32 | 7.6 ± 0.5 ×10⁻⁶ cm/s |  | Significant decrease in latency | No reversal | No effect on escape or avoidance
O=C1CCCc2c1ccn2CCCN1CCN(c2cccc(Cl)c2)CC1 [NEO-363, 1-{3-[4-(3-Chlorophenyl)piperazine-1-yl]propyl}-1,5,6,7-tetrahydroindol-4-one] | No | High | 18 ± 0.7 ×10⁻⁶ cm/s | 0.75 | 13.1 ± 1.1 ×10⁻⁶ cm/s |  |  |  | No effect
COc1ccccc1N1CCN(CCn2ccc3c2CCCC3=O)CC1 [NEO-377, 1-{2-[4-(2-Methoxyphenyl)-piperazin-1-yl]-ethyl}-1,5,6,7-tetrahydroindol-4-one] | No | High | 26 ± 1.8 ×10⁻⁶ cm/s | 0.6 | 15.5 ± 2.9 ×10⁻⁶ cm/s | Significant reduction in avoidance | Significant increase in latency |  | 
COc1ccccc1N1CCN(CCCn2ccc3c2CCCC3=O)CC1 [NEO-370, 1-{3-[4-(2-Methoxyphenyl)piperazine-1-yl]propyl}-1,5,6,7-tetrahydroindol-4-one] | No | High | 32.1 ± 8.1 ×10⁻⁶ cm/s | 0.67 | 20 ± 3.4 ×10⁻⁶ cm/s | Significant reduction in avoidance | Significant increase in latency |  | 

Continued, in another order:

EFFLUX LIMITED (Caco-2 cells) | PERMEABILITY (Caco-2 cells) | Papp A→B [1] | efflux ratio [1] | SMILES | Papp B→A [1] | Conditioned Avoidance Responding, effect on avoidance (mice) | Conditioned Avoidance Responding, effect on latency (mice) | PCP Disruption of Pre-pulse Inhibition, result in words (male C-57 mice) | Conditioned Avoidance Responding, overall effect / effect on escape or avoidance (mice)
No | High | 27.1 ± 1.2 ×10⁻⁶ cm/s | 0.58 | O=C1CCCc2c1ccn2CCCCN1CCN(c2cccc(C(F)(F)F)c2)CC1 [NEO-392, 1-{4-[4-(3-Trifluoromethylphenyl)piperazin-1-yl]-butyl}-1,5,6,7-tetrahydroindol-4-one] | 15.7 ± 1.3 ×10⁻⁶ cm/s | Significant reduction in avoidance | Significant increase in latency |  | 
No | High | 20.4 ± 1.8 ×10⁻⁶ cm/s | 0.43 | O=C1CCCc2c1ccn2CCN1CCN(c2cccc(Cl)c2)CC1 [NEO-376, 1-{2-[4-(3-Chloro-phenyl)-piperazin-1-yl]-ethyl}-1,5,6,7-tetrahydroindol-4-one] | 9.4 ± 0.3 ×10⁻⁶ cm/s |  | significant increase in latency |  | No effect on escape or avoidance
No | High | 32.9 ± 9.6 ×10⁻⁶ cm/s | 0.77 | O=C1CCCc2c1ccn2CCCN1CCN(c2ncccn2)CC1 [NEO-381, 1-{3-[4-(2-Pyrimidyl)piperazine-1-yl]propyl}-1,5,6,7-tetrahydroindol-4-one] | 25.3 ± 0.7 ×10⁻⁶ cm/s |  |  | No reversal | No effect
No | High | 17.3 ± 2.3 ×10⁻⁶ cm/s |  | CC(C)NCC(O)COc1cccc2ccccc12 (stereo not shown) [Propranolol, reference compound] |  |  |  |  | 
